Experimental data from patent US9340559B2, “Proteasome inhibitor delanzomib for use in the treatment of lupus” (Cephalon, Inc., priority 2011, dated 2016).
Where two headings read alike, the source gives them in different places.

Legend:
Format in all cases: in vivo, mouse
MRL/lpr mice = experiment: Antibody secreting B-cell Elispot (anti-Smith Ag, anti-dsDNA, anti-chromatin ASC), spleens of MRL/lpr mice
Protocol: (§1) FIG. 9 depicts frequency of anti-Smith antigen and anti-dsDNA antibody secreting cells in the spleens of MRL/lpr mice. MRL/lpr treated mice spleens were processed for splenocytes for ex vivo Elispot assays. Elispot wells were coated with 10 μg/mL of smith antigen, dsDNA or ovalbumin protein. Fresh, whole splenocytes were added to each well at 500,000 cells per well in cell culture medium. Cells were incubated overnight at 37° C. Developed wells provided spots that were counted as frequency of ASCs per million splenocytes.
as §1, with “10” for “9”, “depicts the” for “depicts”, “anti-chromatin” for “anti-Smith antigen and anti-dsDNA”, “boiled chicken chromatin” for “smith antigen, dsDNA”, “[…]” for “500,000”
B-cell Elispot components are ordered from MabTech (Nacka Strand, Sweden) and nitrocellulose IP filter plates are ordered from Millipore (Billerica, Mass.). Elispot wells are coated with either purified bovine thymus dsDNA (Sigma), purified bovine Smith antigen (GenWay) or boiled filtered purified chicken chromatin from lysed chicken red blood cells (Rockland, Gilbertsville, Pa.) at 10 μg/mL. Spleens are processed using glass homogenization, filtered through a 60 μm sterile cell strainer and red blood cells (RBCs) lysed using BioLegend (San Diego, Calif.) lysis buffer. Processed splenocytes are added to each well in culture medium. To avoid skewing of true ex vivo frequencies of antibody secreting cell types (ASCs), cells are not stimulated with a polyclonal mitogen like LPS, but rather incubated in media alone to allow monitoring of genuine ex vivo antibody release. Anti-mouse pan-IgG is used as a positive control for total IgG producing ASCs and is used to normalize results. Frequencies for each antigen are identified in an initial test phase for each model. For chromatin and total IgG only, 30,000 splenocytes are added to each well; for Smith antigen and dsDNA, 500,000 cells are added to each well. Different numbers of splenocytes are added for different antigens due to saturation limits of spot frequencies per well. These limits are previously established. B-cell Elispots are incubated overnight at 37° C. To develop each assay, secondary antibody is added to each well, incubated, washed and alkaline phosphatase strepavidin is used as the conjugate; substrate used is BCIP-NBT. Plates are developed until spots are visible. All Elispot analyses are performed using an Immunospot C.T.L. scanner and Biospot software (Cellular Technology Ltd., Shaker Heights, Ohio). Results are shown as values from which media and cells only wells are subtracted. Some values are negative due to high background.

NZM mice [1] = tested on: NZM mice
NZM mice [2] = experiment: Survival, NZM lupus nephritis model, ip dosing (Example 2)

CC(C)C[C@H](NC(=O)[C@H](Cc1ccccc1)NC(=O)c1cnccn1)B(O)O [bortezomib, reference compound]
ASC EOS Smith Ag, percent change vs vehicle (MRL/lpr mice; G4: 0.5 mg/kg iv, 1× wk): −74% | ASC EOS chromatin, percent change vs vehicle (MRL/lpr mice; G4: 0.5 mg/kg iv, 1× wk): −64% | ASC EOS dsDNA, percent change vs vehicle (MRL/lpr mice; G4: 0.5 mg/kg iv, 1× wk): −58% | ASC EOS Smith Ag, percent change vs vehicle (MRL/lpr mice; G5: 0.3 mg/kg iv, 2× wk): +73% | ASC EOS chromatin, percent change vs vehicle (MRL/lpr mice; G5: 0.3 mg/kg iv, 2× wk): +5% | ASC EOS dsDNA, percent change vs vehicle (MRL/lpr mice; G5: 0.3 mg/kg iv, 2× wk): +219% | Cytokine IL-12 AUC, percent change vs vehicle (NZM mice [1]; G3 0.3 mg/kg ip, 1× wk): −32% | Cytokine IL-13 AUC, percent change vs vehicle (NZM mice [1]; G3 0.3 mg/kg ip, 1× wk): −66% | Cytokine IL-17A AUC, percent change vs vehicle (NZM mice [1]; G3 0.3 mg/kg ip, 1× wk): −73% | Cytokine IP-10 AUC, percent change vs vehicle (NZM mice [1]; G3 0.3 mg/kg ip, 1× wk): −50% | Cytokine MIG AUC, percent change vs vehicle (NZM mice [1]; G3 0.3 mg/kg ip, 1× wk): −67% | Cytokine TNFα AUC, percent change vs vehicle (NZM mice [1]; G3 0.3 mg/kg ip, 1× wk): 12% | Cytokine IL-12 AUC, percent change vs vehicle (NZM mice [1]; G4 0.3 mg/kg ip, 2× wk): −55% | Cytokine IL-13 AUC, percent change vs vehicle (NZM mice [1]; G4 0.3 mg/kg ip, 2× wk): −65% | Cytokine IL-17A AUC, percent change vs vehicle (NZM mice [1]; G4 0.3 mg/kg ip, 2× wk): −85% | Cytokine IP-10 AUC, percent change vs vehicle (NZM mice [1]; G4 0.3 mg/kg ip, 2× wk): −59% | Cytokine MIG AUC, percent change vs vehicle (NZM mice [1]; G4 0.3 mg/kg ip, 2× wk): −72% | Cytokine TNFα AUC, percent change vs vehicle (NZM mice [1]; G4 0.3 mg/kg ip, 2× wk): −29% | p, serum IL-12p40/p70 concentration vs G9 Vehicle 1× wk ip (NZM mice [1]; G5 0.3 mg/kg 1× wk ip): NS (NS = not significant (p > 0.05)) | p, serum IL-13 concentration vs G9 Vehicle 1× wk ip (NZM mice [1]; G5 0.3 mg/kg 1× wk ip): NS (NS = not significant (p > 0.05)) | p, serum IL-17A concentration vs G9 Vehicle 1× wk ip (NZM mice [1]; G5 0.3 mg/kg 1× wk ip): NS (NS = not significant (p > 0.05)) | p, serum IP-10 concentration vs G9 Vehicle 1× wk ip (NZM mice [1]; G5 0.3 mg/kg 1× wk ip): p < 0.001 | p, serum MIG concentration vs G9 Vehicle 1× wk ip (NZM mice [1]; G5 0.3 mg/kg 1× wk ip): NS (NS = not significant (p > 0.05)) | p, serum TNFα concentration vs G9 Vehicle 1× wk ip (NZM mice [1]; G5 0.3 mg/kg 1× wk ip): NS (NS = not significant (p > 0.05)) | p, serum IL-12p40/p70 concentration vs G9 Vehicle 1× wk ip (NZM mice [1]; G6 0.3 mg/kg 2× wk ip): p < 0.05 | p, serum IL-13 concentration vs G9 Vehicle 1× wk ip (NZM mice [1]; G6 0.3 mg/kg 2× wk ip): NS (NS = not significant (p > 0.05)) | p, serum IL-17A concentration vs G9 Vehicle 1× wk ip (NZM mice [1]; G6 0.3 mg/kg 2× wk ip): NS (NS = not significant (p > 0.05)) | p, serum IP-10 concentration vs G9 Vehicle 1× wk ip (NZM mice [1]; G6 0.3 mg/kg 2× wk ip): p < 0.001 | p, serum MIG concentration vs G9 Vehicle 1× wk ip (NZM mice [1]; G6 0.3 mg/kg 2× wk ip): NS (NS = not significant (p > 0.05)) | p, serum TNFα concentration vs G9 Vehicle 1× wk ip (NZM mice [1]; G6 0.3 mg/kg 2× wk ip): NS (NS = not significant (p > 0.05)) | serum IL-12 decrease vs vehicle, range over the substance's groups (NZM mice [1]; once and twice weekly groups): 32-55% | serum CXCL9/MIG as compared to CTX (NZM mice [1]; p<0.001 vs CTX, but not to DEX): decreased | IL-13 serum levels compared to vehicle (NZM mice [1]; treatment groups): No significant change | IL-17A serum levels compared to vehicle (NZM mice [1]; treatment groups): No significant change | EOS survival, percent live mice from original number (NZM mice [2]; G3 0.3 mg/kg ip, 1× wk): 58% | EOS survival, percent live mice from original number (NZM mice [2]; G4 0.3 mg/kg ip, 2× wk): 75% | mice still alive at day 56 (NZM mice [2]; both treatment groups of the substance): 75%
